Like-named read-outs stand apart in the source and are kept apart here.
Legend:
[1] = biological target: GSK3α (GST-full length GSK3α) (Homo sapiens (Human), UniProt P49840); experiment: GSK3α TR-FRET kinase assay; format: biochemical
Procedure, shortened: (§1)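 Compound preincubated 30 min, then 1 nM GST-full-length GSK3α or GSK3b run 100 min at ambient temperature with 200 nM biotinylated, S645-prephosphorylated glycogen synthase 631-650 peptide in Tris pH 7.5, MgCl2, DTT, BSA, 1% DMSO. ATP 4 μM (α) or 2 μM (β), or 1 mM. EDTA-quenched; Tb-anti-pSer641/streptavidin-d2 TR-FRET 665/615 ratio gave IC50.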

[2] = biological target: GSK3b (GST-full length GSK3b) (Homo sapiens (Human), UniProt P49841); experiment: GSK3b TR-FRET kinase assay; format: biochemical
Procedure, shortened: as §1

[3] = 1 nM GSK3α, 4 μM ATP, 30 minute preincubation, geometric mean, read-out: GSK3-A TR-FRET BIOCHEMICAL (TR-FRET), GMean, IC50
[4] = read-out: GSK3-A (TR-FRET 1 mM ATP), GMean, IC50, 1 mM ATP, geometric mean
[5] = 1 nM GSK3b, 2 μM ATP, 30 minute preincubation, geometric mean, read-out: GSK3-B TR-FRET BIOCHEMICAL (TR-FRET), GMean, IC50
[6] = read-out: GSK3-B (TR-FRET 1 mM ATP), GMean, IC50, 1 mM ATP, geometric mean
[7] = 1 nM GSK3α, 4 μM ATP, 30 minute preincubation, Table 16, read-out: GSK3-A TR-FRET BIOCHEMICAL (TR-FRET)
[8] = 1 nM GSK3b, 2 μM ATP, 30 minute preincubation, Table 16, read-out: GSK3-B TR-FRET BIOCHEMICAL (TR-FRET)
[9] = 1 nM GSK3α, 4 μM ATP, 30 minute preincubation, read-out: GSK3-A TR-FRET BIOCHEMICAL (TR-FRET), IC50
[10] = 1 nM GSK3b, 2 μM ATP, 30 minute preincubation, read-out: GSK3-B TR-FRET BIOCHEMICAL (TR-FRET), IC50
[11] = GSK3-A (TR-FRET 1 mM ATP), GMean, IC50, 1 mM ATP, geometric mean
[12] = GSK3-B (TR-FRET 1 mM ATP), GMean, IC50, 1 mM ATP, geometric mean

GSK3b (GST-full length GSK3b), sequence (P49841 whole entry): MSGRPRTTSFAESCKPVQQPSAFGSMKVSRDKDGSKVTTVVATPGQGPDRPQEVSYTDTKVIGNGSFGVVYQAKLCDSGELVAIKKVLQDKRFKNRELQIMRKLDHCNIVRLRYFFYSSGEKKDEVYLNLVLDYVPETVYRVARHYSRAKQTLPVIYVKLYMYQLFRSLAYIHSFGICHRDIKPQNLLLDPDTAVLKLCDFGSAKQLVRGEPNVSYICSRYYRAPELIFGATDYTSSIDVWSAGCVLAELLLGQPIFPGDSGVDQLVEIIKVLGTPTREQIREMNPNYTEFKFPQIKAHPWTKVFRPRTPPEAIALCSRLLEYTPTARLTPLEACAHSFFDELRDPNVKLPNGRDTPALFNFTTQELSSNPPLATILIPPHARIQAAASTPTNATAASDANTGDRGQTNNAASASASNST
GSK3α (GST-full length GSK3α), sequence (P49840 whole entry): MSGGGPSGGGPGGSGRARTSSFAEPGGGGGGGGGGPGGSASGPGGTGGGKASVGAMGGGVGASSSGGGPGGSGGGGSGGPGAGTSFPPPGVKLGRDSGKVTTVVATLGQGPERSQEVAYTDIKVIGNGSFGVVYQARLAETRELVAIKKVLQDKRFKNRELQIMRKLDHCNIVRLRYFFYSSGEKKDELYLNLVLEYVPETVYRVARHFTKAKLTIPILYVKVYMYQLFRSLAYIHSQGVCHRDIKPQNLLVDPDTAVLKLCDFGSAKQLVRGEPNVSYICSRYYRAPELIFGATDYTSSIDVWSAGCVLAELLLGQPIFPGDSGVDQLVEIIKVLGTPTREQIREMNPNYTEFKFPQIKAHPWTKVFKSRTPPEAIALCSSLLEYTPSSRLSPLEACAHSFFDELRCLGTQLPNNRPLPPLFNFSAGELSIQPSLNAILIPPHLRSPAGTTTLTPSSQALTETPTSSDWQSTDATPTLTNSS

SMILES	IC50 [1, 3]	IC50 [2, 5]	IC50 [1, 7]	IC50 [2, 8]	further results
CCC1(c2cccc(-c3ccncc3C)c2)C2=C(CC(C)(C)NC2=O)Nc2n[nH]c(C(F)(F)F)c21 (stereo not shown) [Compound 947404]	≤ 100 nM	≤ 100 nM	–	–	IC50 [1, 4]: ≤ 100 nM; IC50 [2, 6]: 100 to 1000 nM
CCC1(c2cccc(-c3cnn(C)c3)c2)C2=C(CC(C)(C)NC2=O)Nc2n[nH]c(C(F)(F)F)c21 (stereo not shown) [Compound 947405]	≤ 100 nM	≤ 100 nM	–	–	IC50 [1, 4]: ≤ 100 nM; IC50 [2, 6]: 100 to 1000 nM
CC[C@]1(c2cccc(-c3ccnc(C)c3)c2)C2=C(C[C@]3(CCOC3)NC2=O)Nc2n[nH]cc21 [Compound 947406]	–	–	≤ 100 nM	100 to 1000 nM	IC50 [1, 4]: 100 to 1000 nM; IC50 [2, 6]: > 5000 nM
CCC1(c2cccc(-c3ccnc(C)c3)c2)C2=C(CC3(CCOC3)CC2=O)Nc2n[nH]cc21 (stereo not shown) [Compound 947407]	–	–	≤ 100 nM	1000 to 5000 nM	–
CC[C@]1(c2cccc(-c3c(C)nn(C)c3C)c2)C2=C(CC(C)(C)NC2=O)Nc2n[nH]cc21 [Compound 947408]	≤ 100 nM	≤ 100 nM	–	–	IC50 [1, 4]: 100 to 1000 nM; IC50 [2, 6]: 1000 to 5000 nM
CC[C@]1(c2cccc(-c3ccncc3C)c2)C2=C(CC(C)(C)NC2=O)Nc2n[nH]c(C)c21 [Compound 947409]	1000 to 5000 nM	> 5000 nM	–	–	–
CC[C@]1(c2cccc(-c3cnn4c3CCCC4)c2)C2=C(CC(C)(C)NC2=O)Nc2n[nH]cc21 [Compound 947410]	≤ 100 nM	100 to 1000 nM	–	–	IC50 [1, 4]: 100 to 1000 nM; IC50 [2, 6]: > 5000 nM
CCC1(c2cccc(-c3ccnc(C)c3)c2)C2=C(CC3(CCOC3)CC2=O)Nc2n[nH]cc21 (stereo not shown) [Compound 947412]	–	–	1000 to 5000 nM	> 5000 nM	–
CC[C@@]1(c2cccc(-c3c(C)nn(C)c3C)c2)C2=C(CC(C)(C)NC2=O)Nc2n[nH]cc21 [Compound 947413]	1000 to 5000 nM	> 5000 nM	–	–	–
CC[C@@]1(c2cccc(-c3ccncc3C)c2)C2=C(CC(C)(C)NC2=O)Nc2n[nH]c(C)c21 [Compound 947414]	≤ 100 nM	≤ 100 nM	–	–	IC50 [1, 4]: 100 to 1000 nM; IC50 [2, 6]: 1000 to 5000 nM
CCC1(c2cccc(-c3cnn4c3CCCC4)c2)C2=C(CC(C)(C)NC2=O)Nc2n[nH]cc21 (stereo not shown) [Compound 947415]	1000 to 5000 nM	> 5000 nM	–	–	–
CCC1(c2cccc(C(F)(F)F)c2)C2=C(CCN(c3cccnc3)C2=O)Nc2n[nH]cc21 (stereo not shown) [Compound 947433]	> 5000 nM	> 5000 nM	–	–	–
Cc1ccc(S(=O)(=O)N2CCC3(CC2)C2=C(CC(C)(C)CC2=O)Nc2n[nH]cc23)cc1 [Compound 947459]	–	–	≤ 100 nM	100 to 1000 nM	–
Cc1c(S(=O)(=O)N2CCC3(CC2)C2=C(CC(C)(C)CC2=O)Nc2n[nH]cc23)cnn1C [Compound 947460]	–	–	≤ 100 nM	≤ 100 nM	–
CC1(C)CC(=O)C2=C(C1)Nc1n[nH]cc1C21CCN(S(=O)(=O)c2ccn(-c3ccccc3)n2)CC1 [Compound 947461]	–	–	–	–	IC50 [1, 9]: ≤ 100 nM; IC50 [2, 10]: ≤ 100 nM
CC1(C)CC(=O)C2=C(C1)Nc1n[nH]cc1C21CCN(S(=O)(=O)c2cnc3ccccc3c2)CC1 [Compound 947462]	–	–	≤ 100 nM	≤ 100 nM	IC50 [1, 11]: 100 to 1000 nM; IC50 [2, 12]: 1000 to 5000 nM
CC1(C)CC(=O)C2=C(C1)Nc1n[nH]cc1C21CCN(S(=O)(=O)c2cnccc2C(F)(F)F)CC1 [Compound 947463]	–	–	≤ 100 nM	100 to 1000 nM	–
CC1(C)CC(=O)C2=C(C1)Nc1n[nH]cc1C21CCN(S(=O)(=O)c2cccc3c2OCCO3)CC1 [Compound 947464]	–	–	–	–	IC50 [1, 9]: ≤ 100 nM; IC50 [1, 11]: ≤ 100 nM; IC50 [2, 10]: ≤ 100 nM; IC50 [2, 12]: 100 to 1000 nM
COc1cncc(S(=O)(=O)N2CCC3(CC2)C2=C(CC(C)(C)CC2=O)Nc2n[nH]cc23)c1 [Compound 947465]	–	–	≤ 100 nM	≤ 100 nM	–
CC1(C)CC(=O)C2=C(C1)Nc1n[nH]cc1C21CCN(S(=O)(=O)c2cnnn2-c2ccccc2)CC1 [Compound 947466]	–	–	≤ 100 nM	100 to 1000 nM	–
CC1(C)CC(=O)C2=C(C1)Nc1n[nH]cc1C21CCN(S(=O)(=O)c2cnc3n2CCC3)CC1 [Compound 947467]	–	–	≤ 100 nM	100 to 1000 nM	–
Cc1ccc(S(=O)(=O)N2CCC3(CC2)C2=C(CC(C)(C)CC2=O)Nc2n[nH]cc23)c(C)c1 [Compound 947468]	–	–	≤ 100 nM	≤ 100 nM	–
CC1(C)CC(=O)C2=C(C1)Nc1n[nH]cc1C21CCN(S(=O)(=O)c2cccc3ncccc23)CC1 [Compound 947469]	–	–	≤ 100 nM	≤ 100 nM	–
CC1(C)CC(=O)C2=C(C1)Nc1n[nH]cc1C21CCN(S(=O)(=O)c2cccc3c2CCCC3)CC1 [Compound 947470]	–	–	≤ 100 nM	≤ 100 nM	–

Reference: US20250313563A1, “GLYCOGEN SYNTHASE KINASE 3 INHIBITORS AND USES THEREOF” (The Broad Institute, Inc., priority 2022, published 2025)
